The text below walks through data of patent US20220031680A1, “Donecopride As Neuroprotective Agent In the Treatment of Neurodegenerative Diseases” (priority 2018, published 2022).

Marks after values point to notes of the source that are not given here.

This assay concerns Tau (AT100). Put plainly: Phosphorylation of Tau (AT100) in MAP-2 hippocampal neurons injured with Aβ1-42. It counts as cell-based, rat. The conditions noted are these: for Area of Tau (AT100)/neurons (% of control): Aβ 1-42 (20 μM) 24 h; for concentration of maximal effect on Tau hyperphosphorylation: Aβ1-42 injured hippocampal neurons. On the procedure: The hippocampal neurons were exposed with Aβ solutions (see below) after 17 days of culture. The Aβ1-42 preparation was done following the procedure described by Callizot et al. (2013) J. Neurosci. Res. 91706-716. Briefly, Aβ1-42 peptide was dissolved in the defined culture medium mentioned above, at an initial concentration of 40 μM. This solution was gently agitated for 3 days at 37° C. in the dark and immediately used after being properly diluted in culture medium to the concentrations used (20 μM (plate 1) or 2.5 μM (plate 2) corresponding to 2 μM or 0.25 μM of oligomers (AβO) respectively).
Donecopride fumarate was solved in culture medium and preincubated 1 h before Aβ application. Aβ1-42 preparation was added to a final concentration of 20 or 2.5 μM (=2 μM or 0.25 μM of AβO, evaluated by automatic Western Blot) diluted in control medium in presence of Donecopride.
24 hours after intoxication, the hippocampal neurons were fixed by a cold solution of ethanol (95%) and acetic acid (5%) for 5 min at −20° C. After permeabilization with 0.1% of saponin, cells were incubated for 2 h with:
b) mouse monoclonal antibody anti-phospho Tau (AT100) at dilution of 1/400 in PBS containing 1% fetal calf serum and 0.1% of saponin.
For each condition, 30 pictures (representative of the whole well area) per well were taken using ImageXpress (Molecular Devices) at 20× magnification. All images were taken with the same acquisition parameters. Analyses were performed automatically by using Custom Module Editor (Molecular Devices).
The following endpoints were assessed: • Total number of neurons (neuron survival, number of MAP-2 positive neurons) • Neurite network (in μm of MAP-2 positive neurons) • area of tau in neurons (μm^2, overlapping with MAP-2 positive neurons).
Injury: The hippocampal neurons were exposed with Aβ solutions (see below) after 17 days of culture. The Aβ1-42 preparation was done following the procedure described by Callizot et al. (2013) J. Neurosci. Res. 91:706-716. The batch number of the Aβ1-42 used in this study contains 10% of oligomers (quantification by WB as performed in Combes et al. (2015) J. Neurosci. Res. 93:633-643). Briefly, Aβ1-42 peptide was dissolved in the defined culture medium mentioned above, at an initial concentration of 40 μmol/1. This solution was gently agitated for 3 days at 37° C. in the dark and immediately used after being properly diluted in culture medium to the concentrations used (20 μmol/l or 2.5 μmol/l corresponding to 2 μmol/l or 0.25 μmol/l of oligomers (AβO) respectively). Aβ1-42 preparation was added to a final concentration of 20 or 2.5 μmol/l (respectively 2 μmol/l or 0.25 μmol/l of AβO, determined by automatic WB) diluted in control medium in presence of the compounds.
Immunostaining: MAP-2/AT100—After fixation and permeabilization, cells were incubated for 2 hours with: • a chicken polyclonal antibody anti microtubule-associated-protein 2 (MAP-2) at dilution of 1/1000 in PBS containing 1% fetal calf serum and 0.1% saponin (this antibody stains specifically cell bodies and neurites, allowing study of neuronal cell death and neurite network); and • a mouse monoclonal antibody anti-phospho Tau (AT100) at dilution of 1/100 in PBS containing 1% fetal calf serum and 0.1% saponin.
For each condition, 30 pictures (representative of the whole well area) per well were taken using ImageXpress® (Molecular Devices) with 20× magnification. All images were generated using the same acquisition parameters. From images, analyses were directly and automatically performed by Custom Module Editor® (Molecular Devices). The following read-outs were investigated: • Total number of neurons (neuron survival, number of MAP-2 positive neurons) • Neurite network (in μm of MAP-2 positive neurons) • Area of AT100 (μm^2, overlapping with MAP-2 positive neurons).

With `COc1cc2c(cc1OC)C(=O)C(CC1CCN(Cc3ccccc3)CC1)C2` (stereo not shown) [Donepezil, reference compound], the “Area of Tau (AT100)/neurons (% of control)” value (“Area of Tau … (% of control)” below) (1 μM) is reported as 151* % of control.
For `COc1cc(N)c(F)cc1C(=O)CCC1CCN(CC2CCCCC2)CC1` [Flucopride], the “concentration of maximal effect on Tau hyperphosphorylation” value came to 50 nM.
Turning to `COc1cc(N)c(Cl)cc1C(=O)CCC1CCN(CC2CCCCC2)CC1` [Donecopride], the “Area of Tau … (% of control)” value was 204 % of control (1 nM); 201 % of control (5 nM); 175 % of control (10 nM); 161* % of control (50 nM); 154* % of control (100 nM); 152* % of control (500 nM). For the same compound, the “Area of Tau … (% of control)” value (1 μM) is 198 % of control.
Turning to `COc1cc(N)c(F)cc1C(=O)CCC1CCN(CC2CCCC2)CC1` [MR33583], the “concentration of maximal effect on Tau hyperphosphorylation” value is 50 to 100 nM.
